# How the values were obtained:
# [1] = oral, Dong et al. 2003; cited from earlier work
# [2] = Solubility in 90% ethanol (Chinese Pharmacopeia method); assay type: physicochemical; conditions: 25° C.±2° C., observed at 30 minutes
# Protocol: The solution is observed at 30 minutes, and it is defined as complete dissolution when no solute particles or droplets are noticed.
# • 1. Dissolve ginsenoside Rg3 in ethanol. • 100 mg test ginsenoside Rg3 was added to 100 ml of 90% ethanol at 25° C.±2° C., and forcefully shaken for 30 seconds every 5 minutes. […] Preparation of Rg3 solution in ethanol. • The ginsenoside Rg3-ethanol solution is prepared according to Rg3's solubility, and this solution will be used to determine the percentage of polyoxyethylene hydrogenated castor oil in formulation. • 3. Establishment of artificial gastric and intestinal environments. • The artificial gastric and intestinal fluids are prepared in accordance to experimental example 2. • 4. Determination of the proportion of protectant polyoxyethylene hydrogenated castor oil (Cremophor RH40) in ginsenoside Rg3-ethanol solution. • Polyoxyethylene hydrogenated castor oil (Cremophor RH40) at different proportions, from 5%-90%, is added to 100 ml ginsenoside Rg3-ethanol solution, and then the mixture is subjected to artificial gastric or intestinal fluids for stability test. […] The highest proportion as determined, i.e., 50% or 175 mg is adopted for drug preparation. • 5. […]
# • 1. […] The highest proportion as determined, i.e., 40% or 150 mg is adopted for drug preparation. • 5. […]
SMILES,absorption rate from the GI tract [1] [%],Amount completely dissolved in 100 ml 90% ethanol [2] [mg]
"CC(C)=CCC[C@](C)(O[C@@H]1O[C@H](CO)[C@@H](O)[C@H](O)[C@H]1O)[C@H]1CC[C@]2(C)[C@@H]1[C@H](O)C[C@@H]1[C@@]3(C)CC[C@H](O)C(C)(C)[C@@H]3[C@@H](O[C@@H]3O[C@H](CO)[C@@H](O)[C@H](O)[C@H]3O)C[C@]12C [Rg1, ginsenoside Rg1]",1.9,–
"CC(C)=CCC[C@](C)(O)[C@H]1CC[C@]2(C)[C@@H]1[C@H](O)C[C@@H]1[C@@]3(C)CC[C@H](O[C@@H]4O[C@H](CO)[C@@H](O)[C@H](O)[C@H]4O[C@@H]4O[C@H](CO)[C@@H](O)[C@H](O)[C@H]4O)C(C)(C)[C@@H]3CC[C@]12C [Rg3, ginsenoside Rg3]",–,100
"CC(C)=CCC[C@@](C)(O)[C@H]1CC[C@]2(C)[C@@H]1[C@H](O)C[C@@H]1[C@@]3(C)CC[C@H](O)C(C)(C)[C@@H]3CC[C@]12C [aPPD, protopanoxadiol sapogenin aPPD]",–,40
CC(C)=CCC[C@](C)(O[C@@H]1O[C@H](CO[C@@H]2O[C@H](CO)[C@@H](O)[C@H](O)[C@H]2O)[C@@H](O)[C@H](O)[C@H]1O)[C@H]1CC[C@]2(C)[C@@H]1[C@H](O)C[C@@H]1[C@@]3(C)CC[C@H](O[C@@H]4O[C@H](CO)[C@@H](O)[C@H](O)[C@H]4O[C@@H]4O[C@H](CO)[C@@H](O)[C@H](O)[C@H]4O)C(C)(C)[C@@H]3CC[C@]12C [Rb1],1,–
"CC(C)=CCC[C@](C)(O)[C@H]1CC[C@]2(C)[C@@H]1[C@H](O)C[C@@H]1[C@@]3(C)CC[C@H](O[C@@H]4O[C@H](CO)[C@@H](O)[C@H](O)[C@H]4O)C(C)(C)[C@@H]3CC[C@]12C [Rh2, ginsenoside Rh2]",3.4,–

# From US20080038335A1, “METHOD, FORMULATION, AND USE THEREOF FOR IMPROVED ORAL ABSORPTION OF PHARMACEUTICALS OR NUTRIENTS” (SHANGHAI TIANBO BIOTECHNOLOGY CO., LTD., priority 2005, published 2008)
